Like-named read-outs stand apart in the source and are kept apart here.
Experiments:
[1] = system: genotype C HBV (L180M+S202G+M204V; ETV-resistant strain); experiment: Virus titer in chimeric mice having human liver infected with ETV-resistant genotype C HBV (Example 5); format: in vivo, Hepatitis B virus; details: formula (III) 5 mg/kg iv daily, PEG-IFN 30 μg/kg sc, ETV 0.02 mg/kg oral daily (FIG. 5)
Description: (§1) Next, serum HBV was purified by the same method as described in Example 1, and HBV was quantified by measuring HBV-DNA using real-time PCR method. The sequences of primers HBSF2: 5′-CTTCATCCTGCTGCTATGCCT-3′[nt 406-426] (SEQ ID NO: 4) and HBSR2: 5′-AAAGCCCAGGATGATGGGAT-3′[nt 646-627] (SEQ ID NO: 5), and the sequence of TaqMan probe HBSP2 (nt 461-488) (5′-ATGTTGCCCGTTTGTCCTCTAATTCCA-3′ (SEQ ID NO: 6)) were the same as those described in the reference (Abe A, Inoue K, Tanaka T, Kato J, Kajiyama N, Kawaguchi R, Tanaka S, et al. Quantitation of hepatitis B virus genomic DNA by real-time detection PCR. J Clin Microbiol (1999) 37: 2899-2903).
(§2) The same test as described in Example 3 was carried out using chimeric mice (purchased from PhoenixBio Co., Ltd.) having human liver infected with genotype C HBV (L180M+S202G+M204V; ETV-resistant strain). The compound represented by formula (III) was administered at 5 mg/kg (intravenous injection every day), while PEG-IFN was administered at 30 μg/kg (subcutaneous injection). Entecavir (ETV) was administered at 0.02 mg/kg (oral administration every day).

[2] = system: HBV (genotype C_AT; wild-type strain); experiment: Virus titer in chimeric mice having human liver infected with genotype C_AT HBV (Example 4); format: in vivo, Hepatitis B virus; details: second week, formula (III) 5 mg/kg iv daily, PEG-IFN 30 μg/kg sc, ETV 0.02 mg/kg oral daily (FIG. 4)
Description: as §1
as §2, with “with” for “with genotype C”, “(genotype C_AT; wild-type” for “(L180M+S202G+M204V; ETV-resistant”

[3] = system: HBV (genotype C_AT; wild-type strain); experiment: Anti-HBV effect on HBV-infected Huh-7 cells, HBV-DNA in supernatant by real-time PCR (wild-type strain); format: cell-based; details: Hepatitis B virus
Method: The present inventors assessed the anti-HBV effect of the compound represented by formula (III) on Huh-7 cells infected with HBV (genotype C_AT; wild-type strain).
(§3) On the day before HBV infection, about 100,000 Huh-7 cells were plated in 12-well plates (FALCON, 353043) using culture medium DMEM (SIGMA, D6429).
On the day of infection, 50 μl of a homogenous mixture of 0.5 μg of HBV-DNA (described in “Sugiyama M, et al. HEPATOLOGY, Vol. 44: 915-924, 2006”), 1.5 μl of FUGENE6 (Roche Diagnostics; 11 814 443 001), 5 μl of SEAP, and 43 μl of OPTIMEM (Invitrogen; 31985) was added to the Huh-7 cells in each well. Then, the compound represented by formula (III) was added at a final concentration of 0, 3, 10, or 30 μM.
The cells were cultured at 37° C. under 5% CO2 for three days, and then culture supernatant was collected from each well. The supernatant was treated with deoxyribonuclease (DNase) to remove free DNA. […]
(§4) HBV was quantified by measuring HBV-DNA using real-time PCR (Device used: Applied Biosystems, 4318157). […]
(§5) (SEQ ID NO: 2); and HBVSP2 has the sequence of: FAM-[…]-TAMRA (SEQ ID NO: 3)). […] HBV-DNA copy numbers were determined from the obtained fluorescent signals.

[4] = system: HBV strain A, L180M+M204V (highly Lamivudine-resistant strain); experiment: HBV propagation suppression in Huh-7 cells, strain A (highly Lamivudine-resistant); format: cell-based; details: Hepatitis B virus, Huh-7, read-out: 50% propagation suppression
Method: (§6) FIG. 1B is a graph showing the effect of an agent on Huh-7 cells infected with various HBV strains. • A: highly Lamivudine-resistant strain, 50% propagation suppression=3.4 μM; • B: Entecavir-resistant strain, 50% propagation suppression=3.7 μM; • C: Lamivudine-resistant strain, 50% propagation suppression=3.6 μM; • Wild: wild-type strain, 50% propagation suppression=3.2
as §3
(§7) On the day of infection, 50 μl of a homogenous mixture of 0.5 μg of HBV-DNA (described in “Sugiyama M, et al. HEPATOLOGY, Vol. 44: 915-924, 2006”), 1.5 μl of FUGENE6 (Roche Diagnostics; 11 814 443 001), 5 μl of SEAP, and 43 μl of OPTIMEM (Invitrogen; 31985) was added to the Huh-7 cells in each well. […]
as §4, §5
(§8) Furthermore, the effect of suppressing HBV propagation was assessed by the same method using Lamivudine- and Entecavir-resistant strains (A, L180M+M204V; B, L180M+M204V+T184L; C, M204V (YVDD)) as well as wild-type HBV strain (Wild).

[5] = system: HBV strain B, L180M+M204V+T184L (Entecavir-resistant strain); experiment: HBV propagation suppression in Huh-7 cells, strain B (Entecavir-resistant); format: cell-based; details: Hepatitis B virus, Huh-7, read-out: 50% propagation suppression
Method: as §6, §3, §7, §4, §5, §8

[6] = system: HBV strain C, M204V (YVDD) (Lamivudine-resistant strain); experiment: HBV propagation suppression in Huh-7 cells, strain C (Lamivudine-resistant); format: cell-based; details: Hepatitis B virus, Huh-7, read-out: 50% propagation suppression
Method: as §6, §3, §7, §4, §5, §8

For C=C1[C@H](CO)[C@@H](O)C[C@@H]1n1cnc2c(=O)[nH]c(N)nc21 [ETV, Entecavir], the viral decrease [1] was 0.3 Log and the “mean decrease of virus titer” value [2] was 1.4 Log.

In the case of CC#CCOc1ccc(C[C@H](NC(=O)[C@@H](/C=C/CCCCCCC(=O)CCCCCCC)[C@@](O)(CC(=O)O)C(=O)O)C(=O)O)cc1 [compound represented by formula (III)], the IC50 ([3]; 72 h, Huh-7 cells, genotype C_AT wild-type HBV, three days culture, HBV-DNA in supernatant (FIG. 1A), read-out: 50%-inhibition concentration (IC50)) is reported as ~3 µM, the IC50 ([3]; Huh-7, read-out: 50% propagation suppression) is reported as 3.2 µM and the IC50 [4] is reported as 3.4 µM. For the same molecule, the IC50 [5] was 3.7 µM and the IC50 [6] was 3.6 µM.

Reference: patent US20110160252A1, “PHARMACEUTICAL COMPOSITIONS FOR TREATMENT OR PREVENTION OF HBV INFECTION” (priority 2008, published 2011)
